# Data from a melting point compilation (Tetko et al.).
row,Compound,melting point [°C]
1,CCCCc1ccc(/N=N/c2ccc(OC(=O)CC)cc2)cc1,84 to 87
2,COc1ccc(C=C(C(=O)O)C(=Cc2ccc(OC)cc2)C(=O)O)cc1,263
3,COc1ccc2c(=O)cc(-c3ccccc3)oc2c1,110
4,COc1ccc(N2C(=O)C3ON=C(C(=O)c4ccc(C)cc4)C3C2=O)cc1 (stereo not drawn),126
5,Cn1c(S(=O)(=O)O)nc2ccccc21,341
6,O=S(=O)(Cl)c1ccc(-c2cc(C(F)(F)F)on2)s1,106 to 107
7,Cc1ccc(C)c(Cl)c1,1.6
8,O=C(C=Cc1ccc(O)c(O)c1)OC1CC(O)(C(=O)O)CC(O)C1O (stereo not drawn),205 to 209
9,CC(C(=O)O)c1ccc(N2CC=CC2)c(Cl)c1 (stereo not drawn),99
10,Cc1cc(C(N)=O)no1,171 to 173
11,COC(=O)c1ccc(S(=O)(=O)NC(C)(C)C)n1C,104 to 105
12,CC(=O)OCCOc1cc(OC(C)=O)c2c(=O)c(OC(C)=O)c(-c3ccc(OCCOC(C)=O)c(OCCOC(C)=O)c3)oc2c1,96 to 97
13,O=C(O)c1ccccc1/N=N/C1SC(=S)N(c2ccccc2)C1=O (stereo not drawn),199
14,C#CC(=O)O,18
15,COc1ccc(Cl)c([N+](=O)[O-])c1,44
16,Cc1ccc(C(=O)O)c(Cl)n1,160
17,N#CC(C#N)=Cc1ccc(O)cc1,189
18,O=C(O)Cc1ccc(F)cc1Cl,104
19,CCCc1ccccc1O,7
20,Cc1onc(-c2ccccc2)c1C(=O)Cl,24 to 25
21,CC(C)(C)OC(=O)N1CCC(O)CC1,63
22,O=C(C(=S)Nc1ccc(I)cc1)c1ccccc1,139
23,ClCc1nnc(C2CC2)s1,80 to 84
24,Cc1ccc(N=C(CNc2ccc(C)cc2)Nc2ccc(C)cc2)cc1,136
25,CCCCCCOC(=O)c1ccccc1C(=O)OCCCCCC,-58

row,Compound,melting point [°C]
1,O=c1cc(NC2CCCCC2)c2ccccc2o1,194
2,COc1cc(CCO)ccc1O,41
3,Cc1noc(-c2ccccc2CBr)n1,64 to 67
4,CC1(C)OC(=O)C(=NNc2ccc(Cl)cc2)C(=O)O1,156
5,NC(=O)CSSCC(N)=O,162
6,c1ccc(-c2nnc(NC3=NCCN3)s2)cc1,192 to 194
7,O=C1C(=C2C(=Cc3coc4ccccc4c3=O)C(=O)c3ccccc32)C(=O)c2ccccc21,250 to 251
8,CCCCC(=O)c1ccc(N)cc1,74.5
9,C=C(C)C(=O)OCCN(C)C,-30
10,CC(=O)N1CCCCC1,-13.4
11,COc1ccc2c(c1)CC1(CCC(=O)CC1)C2=O,93
12,COc1ccc(-c2cc(C(F)(F)F)nc(N)n2)cc1,191 to 194
13,Cn1nc(C(=O)O)c2ccccc21,213 to 221
14,O=C(O)C12CC3CC(CC(Br)(C3)C1)C2,147 to 148
15,CCC(=O)c1ccc(O)c(C)c1O,128 to 130
16,COc1ccc2c(c1)OC1c3ccc(O)cc3OCC21 (stereo not drawn),128
17,CC(O)Cn1c(=O)c2c(ncn2C)n(C)c1=O (stereo not drawn),141
18,CN(C)CCc1c[nH]c2ccccc12,46
19,Cc1nc(-c2ccc(N)cc2)no1,113 to 114
20,CC1=NN(CN2CCOCC2)C(=O)/C1=N\Nc1ccc(C(=O)O)cc1,187
21,COC(=O)c1ccc(N(C)C)cc1,100
22,Cc1cc(C#N)ccc1Br,53
23,CC/C=C\C(C)(C)C,-137
24,CC(C)(C)OC(=O)Nc1ccsc1,138 to 140
25,COc1cc(OC(C)=O)c2c(=O)c(O[C@@H]3O[C@H](COC(C)=O)[C@H](OC(C)=O)[C@H](OC(C)=O)[C@@H]3O[C@@H]3O[C@H](C)[C@H](OC(C)=O)[C@H](OC(C)=O)[C@@H]3OC(C)=O)c(-c3ccc(OC(C)=O)cc3)oc2c1,118 to 120

row,Compound,melting point [°C]
1,Cc1ccc2c(c1C)CCC1C2CC=C2CC(C(=O)O)CCC21C (stereo not drawn),162
2,O=[N+]([O-])/C(Br)=C/c1cccc(/C=C(\Br)[N+](=O)[O-])c1,153
3,O=[N+]([O-])c1ccc2c(O)c(-c3ccc(-c4[nH]c5cc([N+](=O)[O-])ccc5c4O)cc3)[nH]c2c1,360
4,Cc1ccc(N=CN(C)C=Nc2ccc(C)cc2C)c(C)c1,86
5,COC(=O)c1ccc(NS(=O)(=O)c2ccc(C)cc2)c(NS(=O)(=O)c2ccc(C)cc2)c1,180 to 182
6,CC(C)[C@H](NC(=O)OCC1c2ccccc2-c2ccccc21)C(=O)Oc1c(F)c(F)c(F)c(F)c1F,121 to 122
7,CNCCCCCCN(C)N(O)N=O,102 to 108
8,CC(=O)C1CCc2ccccc2C1=O (stereo not drawn),56
9,CC(O)(C(=O)c1ccccc1)c1ccccc1 (stereo not drawn),65
10,CCOc1ccc2nc(S(N)(=O)=O)sc2c1,188
11,N#Cc1ccc(F)cc1Cl,64
12,COc1ccc2c(c1)CC(c1ccc([N+](=O)[O-])cc1)OC2=O (stereo not drawn),176
13,COc1cc(C)c2c(c1)CCC(=Cc1ccccc1)C2=O,96 to 97
14,Cc1ccc(-c2ccc(C)c(C)c2)cc1C,76
15,C/C(=N\c1cccc2cccc(N)c12)c1c(O)c2ccccc2n(-c2ccccc2)c1=O,> 300
16,N#CC(=CNNc1ccccc1)c1ccccc1,155 to 156
17,Clc1cncc(Br)c1,80
18,CN1c2ccccc2C(C)(C)C12C=Cc1cc([N+](=O)[O-])ccc1O2 (stereo not drawn),180
19,CS(=O)(=O)c1csc(C(=O)Cl)c1Cl,181 to 185
20,COc1cc(C)c2c(=O)c(-c3ccccc3)coc2c1,116 to 120
21,CC(=O)C(=O)Nc1ccc(Br)cc1,166
22,O=C(CCl)c1cc(Br)c(Cl)s1,77 to 78
23,CC(=O)O[Si](OC(C)=O)(OC(C)(C)C)OC(C)(C)C,-4
24,CCCCC(C)O (stereo not drawn),-23
25,CCCCCOC(=O)Nc1nc(=O)n(C2OC(C)C(O)C2O)cc1F (stereo not drawn),116

row,Compound,melting point [°C]
1,CCCCCCCCCCCCCCCCCCOC(C)=O,34.5
2,O=C(O)C1=CCCc2ccccc21,125
3,CCC1CC(NC(=O)CNC(=O)CBr)C(C)(C)N1O (stereo not drawn),145 to 147
4,Cc1ccc(-c2csc(/C(C#N)=N\Nc3cc(Cl)ccc3Cl)n2)cc1,187
5,CCOC(=O)c1c(SC)nn2c(=O)n(Nc3ccccc3)cnc12,118 to 122
6,OCN(CO)c1nc(N(CO)CO)nc(N(CO)CO)n1,137
7,Oc1ccc(Br)c(Cl)c1,66
8,CC(C)(C)C(=O)CCl,-1
9,Oc1cc(O)cc(-c2cc(O)cc(O)c2)c1,310
10,C1CN2CCN3CCN4CCN1C2C43 (stereo not drawn),30
11,CC(=O)Nc1c(C)ccc2c1C(=O)c1ccccc1C2=O,133
12,FC(F)(F)C(F)(F)C(F)(F)C(F)(F)C(F)(F)F,-100
13,CCOC(=O)c1c(C)nsc1N,111 to 113
14,O=C(O)CCC1CCCCCCCCCCC1=O (stereo not drawn),88 to 90
15,NC(=O)Nc1cccc(O)c1,182 to 184
16,CC(O)c1ccccc1 (stereo not drawn),20
17,Cc1cc(Oc2ncccc2[N+](=O)[O-])cc(C)c1Cl,80 to 82
18,CC1(C)Nc2cccc3c(N=Nc4ccc(N=Nc5ccccc5)c5ccccc45)ccc(c23)N1,120 to 124
19,Nc1ccccc1N1CCCCC1,46
20,Cn1nc(-c2ccc(C=O)s2)cc1C(F)(F)F,80 to 81
21,O=C(NC(=O)c1c(F)cccc1F)Nc1cc(Cl)c(F)c(Cl)c1F,225
22,NC(=O)c1nn(-c2ccccc2)c2ncnc(N)c12,295
23,N#CCNCC#N,77
24,C1COCCOCCOCCOCCOCCN1,48
25,Nc1nc(O)nc(C23CC4CC(CC(C4)C2)C3)n1,340

row,Compound,melting point [°C]
1,CCN(Cc1ccccc1)c1ccccc1,35
2,Cn1c(=O)c2c(ncn2CCCl)n(C)c1=O,122 to 127
3,CCOCN(C(=O)CCl)c1c(C)cccc1CC,10.6
4,Cc1cc(C(F)(F)F)n2nc(N)c(/N=N/c3c(Br)cc(Br)cc3Br)c2n1,98 to 100
5,O=C(O)[C@@H]1Cc2ccccc2CN1,300
6,COc1ccc(C=Nc2n[nH]c(N=Cc3ccc(OC)c(OC)c3)c2Cc2ccc(Cl)cc2)cc1OC,170 to 172
7,COc1ccc([N+](=O)[O-])cc1,54
8,CC(C)(C)OC(=O)NC(CCC(N)=O)C(=O)O (stereo not drawn),119
9,N#Cc1ccc(C=Cc2ccccc2C=NNc2ccccc2)c([N+](=O)[O-])c1,182
10,Cc1nc2ccccn2c1C(=O)O,140 to 142
11,CC(=O)ON(/C=C1\C(=O)C2(C)CCC1C2(C)C)c1ccccc1 (stereo not drawn),162 to 164
12,O=C(O)/C(=C/c1ccccc1F)c1ccccc1,169
13,O=C(Nc1cccc(C(F)(F)F)c1)Nc1nnc(-c2ccc(Cl)cc2)o1,236 to 238
14,O=C(O)CCC(=O)CCC(=O)O,142 to 144
15,O=C(O)c1ccc2c(c1)C(=O)c1cc(C(=O)O)ccc1-2,407
16,COC(=O)C1(S(=O)(=O)c2ccc(Br)cc2)CCC1,95
17,OCc1ccccc1COc1ccccc1,50 to 51
18,O=C1CC(c2ccccc2)Oc2ccc(O)cc21 (stereo not drawn),220 to 222
19,Nc1ccccc1C=Cc1cc(/C=C/c2ccccc2)c(N)cc1N,146
20,COc1cccc2cc(C(=NO)c3cc4cccc(OC)c4o3)oc12,214 to 215
21,CCC1=C(C)CN(C(=O)NCCc2ccc(S(=O)(=O)NC(=O)NC3CCC(C)CC3)cc2)C1=O (stereo not drawn),207
22,Cc1ccc2ccc(=O)oc2c1,128
23,O=C1c2ccccc2C(=O)C1(Cl)c1ccccc1,115 to 116
